Molecular target: Heat shock protein HSP 90-beta (Homo sapiens, UniProt P08238)
Assay: Binding affinity to human recombinant HSP90

Sequence of Heat shock protein HSP 90-beta (P08238 whole entry): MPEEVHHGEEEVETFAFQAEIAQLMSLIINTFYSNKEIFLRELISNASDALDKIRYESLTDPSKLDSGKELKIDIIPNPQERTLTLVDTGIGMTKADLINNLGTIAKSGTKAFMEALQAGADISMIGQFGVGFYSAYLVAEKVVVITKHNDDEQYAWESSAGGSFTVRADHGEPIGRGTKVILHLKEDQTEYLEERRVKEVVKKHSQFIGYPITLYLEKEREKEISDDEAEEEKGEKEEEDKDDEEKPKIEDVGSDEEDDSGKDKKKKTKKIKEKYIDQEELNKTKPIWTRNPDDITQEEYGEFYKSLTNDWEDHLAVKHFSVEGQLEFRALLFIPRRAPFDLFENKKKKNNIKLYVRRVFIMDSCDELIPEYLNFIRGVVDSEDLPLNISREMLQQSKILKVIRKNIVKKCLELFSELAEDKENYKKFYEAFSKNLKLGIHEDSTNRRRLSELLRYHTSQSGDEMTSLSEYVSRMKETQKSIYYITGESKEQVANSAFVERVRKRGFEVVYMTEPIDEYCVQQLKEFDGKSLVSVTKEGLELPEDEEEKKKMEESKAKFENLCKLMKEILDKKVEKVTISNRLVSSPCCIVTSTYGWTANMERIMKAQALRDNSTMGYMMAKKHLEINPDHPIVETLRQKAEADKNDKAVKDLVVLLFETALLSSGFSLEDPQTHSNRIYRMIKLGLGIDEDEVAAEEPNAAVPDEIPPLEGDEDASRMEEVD

| Kd | SMILES |
| --- | --- |
| > 100 µM | CO/N=C1/[C@@H](OC)C[C@H](C)Cc2c(O)c(cc(O)c2N=CCN(C)C)NC(=O)C(C)=CC=C[C@H](OC)[C@@H](OC(N)=O)/C(C)=C/[C@@H]1C [(8S,9S,12S,14S,16R)-19-(2-(dimethylamino)ethylamino)-8,14-dimethoxy-13-(methoxyimino)-4,10,12,16-tetramethyl-3,20,22-trioxo-2-azabicyclo[16.3.1]docosa-1(21),4,6,10,18-pentaen-9-yl carbamate] |
| > 10 µM | CO[C@H]1C[C@H](C)Cc2c(O)c(cc(O)c2N=CCN(C)C)NC(=O)C(C)=CC=C[C@H](OC)[C@@H](OC(N)=O)C(C)=C[C@H](C)C1N=O (stereo partly drawn) [(8S,9S,12S,14S,16R)-19-(2-(dimethylamino)ethylamino)-13-(hydroxyimino)-8,14-dimethoxy-4,10,12,16-tetramethyl-3,20,22-trioxo-2-azabicyclo[16.3.1]docosa-1(21),4,6,10,18-pentaen-9-yl carbamate] |
| 0.8 µM | CO[C@H]1C=CC=C(C)C(=O)Nc2cc(O)c(N=CCF)c(c2O)C[C@@H](C)C[C@H](OC)[C@H](O)[C@@H](C)/C=C(\C)[C@@H]1OC(N)=O [Carbamic acid (4E,6Z,10E)-(8S,9S,12S,13R,14S,16R)-19-(2-fluoro-ethylamino)-13-hydroxy-8,14-dimethoxy-4,10,12,16-tetramethyl-3,20,22-trioxo-2-aza-bicyclo[16.3.1]docosa-1(21),4,6,10,18-pentaen-9-yl ester] |
